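Briefly, cells in 96-well plates were exposed to five compound concentrations for 48 h, and endpoints were estimated by linear interpolation. At the TGI there is no net growth.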 *1 amine or outer side, *2 acyl side, *3 side chain or, on linkers, in order; H or OH if unused. Where a SMILES comes first, the peptide text is derived from it. The star is where a group is joined. γGlu = O=C(O)[CH](CCC(=O)[*:2])N[*:1]; NHOH = ON*
What was measured:
Experiment in all cases: NCI-60 cell line screen, 48 h
CAKI-1 renal = test system: CAKI-1 renal
CCRF-CEM leukemia = test system: CCRF-CEM leukemia
M14 melanoma = test system: M14 melanoma
NCI-H23 lung = test system: NCI-H23 lung
OVCAR-4 ovarian = test system: OVCAR-4 ovarian
SF-295 CNS = test system: SF-295 CNS
SR leukemia = test system: SR leukemia
U251 CNS = test system: U251 CNS
UACC-257 melanoma = test system: UACC-257 melanoma
T-47D breast = test system: T-47D breast

SMILES | TGI (CAKI-1 renal) [µM] | TGI (CCRF-CEM leukemia) [µM] | TGI (M14 melanoma) [µM] | TGI (NCI-H23 lung) [µM] | TGI (OVCAR-4 ovarian) [µM] | TGI (SF-295 CNS) [µM] | TGI (SR leukemia) [µM] | TGI (U251 CNS) [µM] | TGI (UACC-257 melanoma) [µM] | TGI (T-47D breast) [µM]
Cc1ccccc1NC(=O)C(=O)C(C1OC(=O)c2ccccc21)[N+](=O)[O-] (stereo unspecified) | > 100 | > 100 | > 100 | > 100 | > 100 | > 100 | > 100 | > 100 | > 100 | –
Cc1cc(C)c2c(-c3ccccc3)cc(=O)[nH]c2c1 | – | > 100 | > 100 | > 100 | > 100 | > 100 | – | > 100 | > 100 | > 100
Cc1cc2c3c(c1)S(=O)(=O)c1cc(Cl)ccc1N3CCC2 | > 100 | > 100 | > 100 | – | > 100 | > 100 | > 100 | – | > 100 | –
O=c1[nH]c2c(C(F)(F)F)c(Cl)c(-c3ccccc3)nc2o1 | > 100 | 34 | > 100 | 52.1 | 69.5 | > 100 | – | 85.6 | 59.9 | 90.9
CCN1CC2=C(OC(N)=C(C#N)C2c2ccc(Cl)cc2)/C(=C/c2ccc(Cl)cc2)C1 (stereo unspecified) | 30.5 | > 100 | > 100 | 68.7 | > 100 | > 100 | > 100 | 47.2 | > 100 | –
CC(Nc1cccc(Cl)c1)c1ccncc1 (stereo unspecified) | > 100 | > 100 | > 100 | > 100 | > 100 | > 100 | – | > 100 | > 100 | > 100
O=C(O)CSC1=NCCN1 | > 100 | > 100 | > 100 | > 100 | > 100 | > 100 | > 100 | > 100 | – | > 100
c1ccc(C/C(=N\Nc2nc3ccccc3[nH]2)c2ccccn2)cc1 | 1.52 | 0.375 | 0.915 | 13.5 | 10.4 | 6.78 | – | 12.3 | 1.54 | 15.6
COc1cc(/C=C2\CC3C4CC=C5C[C@@H](O)CC[C@]5(C)C4CC[C@]3(C)\C2=N\O)cc(OC)c1OC (stereo partly specified) | 37.7 | > 100 | 27.6 | 55.5 | 68.8 | 22 | – | 28.2 | 61.1 | 18.8
NC(CCC(=O)NC(CCC(=O)NO)C(=O)NCC(=O)O)C(=O)O (stereo unspecified) (γGlu-Glu(NHOH)-Gly-OH; configuration not given here) | > 100 | > 100 | > 100 | > 100 | > 100 | > 100 | – | > 100 | > 100 | > 100
COC(=O)C12C(=O)CC3CCC1C32C(=O)OC (stereo unspecified) | > 100 | > 100 | > 100 | > 100 | > 100 | > 100 | > 100 | > 100 | > 100 | –

From PubChem BioAssay (NCI)
